ChEMBL document CHEMBL5360569, “Inhibition of the pyroptosis-associated inflammasome pathway: The important potential mechanism of ginsenosides in ameliorating diabetes and its complications” (Eur J Med Chem, 2023)

Assay: Cmax in po dosed human plasma
Assay type: ADME, organism-based
Design: route po

SMILES	Cmax
CC(C)=CCC[C@](C)(O[C@H]1O[C@H](CO)[C@@H](O)[C@H](O)[C@H]1O)[C@H]1CC[C@]2(C)[C@@H]1[C@H](O)C[C@@H]1[C@@]3(C)CC[C@H](O)C(C)(C)[C@@H]3CC[C@]12C	8.35 ng/mL
CC(C)=CCC[C@](C)(O[C@@H]1O[C@H](CO[C@@H]2O[C@H](CO)[C@@H](O)[C@H](O)[C@H]2O)[C@@H](O)[C@H](O)[C@H]1O)[C@H]1CC[C@]2(C)[C@@H]1[C@H](O)C[C@@H]1[C@@]3(C)CC[C@H](O[C@@H]4O[C@H](CO)[C@@H](O)[C@H](O)[C@H]4O[C@@H]4O[C@H](CO)[C@@H](O)[C@H](O)[C@H]4O)C(C)(C)[C@@H]3CC[C@]12C [GINSENOSIDE RB1]	3.94 ng/mL
